Results taken from US5674988A, “4-N-substituted sialic acids and their sialosides” (E. I. Du Pont de Nemours and Company, priority 1996, dated 1997).
Where a name gives a salt, the structure may show the parent alone.

Molecular target: influenza A neuraminidase
Assay: Radiolabeled-substrate neuraminidase inhibition assay (hydrolysis of 14C-labeled αDNeuAc(2-6)βDGal(1-4)DGlcNAc, A)
Format: biochemical, influenza A virus
Conditions: substrate A at 1.0-8.0 mM; inhibitor 0.07, 0.14, 0.28 mM; 100 mM NaOAc-5 mM Na2HPO4 pH 5.5; 37° C.; from Lineweaver-Burk plots; read-out: inhibition constant Ki
Procedure: In order to determine the effectiveness of the instant thiosialosides as neuraminidase inhibitors, incubations were performed involving the neuraminidase, the thiosialoside inhibitor and a ^14 C-labeled substrate, ^14 C-labeled αDNeuAc (2-6) βDGal (1-4) DGlcNAc (A).
Inhibition constants of the inhibitors were determined by incubating (37° C.) a solution of A at four different concentrations with the neuraminidase, in the presence or absence of the inhibitors. After the reaction, the reaction mixture was diluted with deionized water and passed through a column of Dowex resin. The column was further eluted with deionized water. Under these conditions, only the free LacNAc elutes. The eluant was diluted with Scintillation fluid (10 mL, Formula 989, NEN, MA) and the radioactivity was measured, and the amount of free LacNAc liberated was determined.
The activity of neuraminidase was measured with a radiolabeled substrate. […]
The neuraminidase concentration was 53 ug of influenza A virus in 60 uL of total reaction volume. […] The eluant was diluted with Scintillation fluid (10 mL), Formula 989, NEN, MA) and the radioactivity was measured for 2 or 5 min with a Liquid Scintillation counter. From the Lineweaver-Burk plots for the hydrolysis of A the inhibition constant Ki was calculated according to methods known in the art.

Structure (SMILES)	Ki [µM]
CC(=O)N[C@H]1[C@H]([C@H](O)[C@H](O)CO)O[C@@](S[C@H](C)[C@H]2OC(O)[C@H](O)[C@@H](O)[C@H]2O)(C(=O)O)C[C@@H]1N (stereo partly drawn) [Compound 14, Sodium Salt of 5-acetamido-4-amino-2-thio-3,4,5-trideoxy-D-glycero-D-galacto-nonulopyranosylonic acid(2-S-6)-7-deoxy-α,β-D-glycero-D-galacto-heptopyranose]	51
CC(=O)NC1C(N)CC(OCC2OC(O)C(O)C(O)C2O)(C(=O)O)OC1C(O)C(O)CO [Compound 12, Sodium Salt of 5-acetamido-4-amino-3,4,5-trideoxy-D-glycero-D-galacto-nonulopyranosylonicacid (2-6)-α-D-galacto-pyranose]	100
